Format in all cases: binding
The target of test [1] is T1, BC2L-C (Burkholderia cenocepacia, UniProt B4EH86).
T1 construct: gene BCAM0185; N-terminal domain (BC2L-C-nt)
Put plainly: STD-NMR; thermal shift assay (about +[…] °C).

In test [2] the target is T1, BC2L-C. The test is described as follows: ITC; X-ray crystal structure ([…] Å, with Globo H); STD-NMR.
In test [3] the target is T1, BC2L-C. Put plainly: STD-NMR in the presence of Me-α-L-Fuc (no density in soaked crystals).

In general, Kd refers to the constant that tells how readily two partners part at equilibrium. Higher therefore signals lower affinity.

T1 sequence (B4EH86 entry or part of it): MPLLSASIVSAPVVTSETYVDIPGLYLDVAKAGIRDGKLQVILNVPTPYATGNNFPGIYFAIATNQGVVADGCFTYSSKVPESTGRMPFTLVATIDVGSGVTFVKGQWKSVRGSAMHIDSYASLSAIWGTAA

Consider `CO[C@@H]1O[C@@H](C)[C@@H](O)[C@@H](O)[C@@H]1O` [Methyl α-L-fucoside], for which the “STD-NMR; thermal shift assay (about +2 °C)” value on BC2L-C [1] is reported as “Me‐α‐L‐Fuc was initially tested alone in the experiment, verifying that it binds BC2L‐C‐nt”.
As to `Cc1nccn1-c1cccc(CN)c1` [KL3, 3‐(2‐Methyl‐1H‐imidazol‐1‐yl) benzylamine], the Kd on BC2L-C [2] came out at 877 µM.
As for `NC(CO)Cc1ccccc1` (stereo not drawn) [KL9], the “STD-NMR in the presence of Me-α-L-Fuc (no density in soaked crystals)” value at BC2L-C [3] is listed as “confirming the binding event for the three fragments in the BC2L‐C‐nt/fucose complex”.

The values above are taken from article PMC8360069, “Prediction and Validation of a Druggable Site on Virulence Factor of Drug Resistant Burkholderia cenocepacia” (Chemistry (Weinheim an Der Bergstrasse, Germany), 2021).
